How the values were obtained:
[1] = molecular target: DGKzeta (hDGKzeta(1-928)-N-His) (Homo sapiens (Human), UniProt Q13574); assay: In vitro DGK inhibition assay, ADP-Glo (in house), DGKzeta; assay type: biochemical; settings: DLG liposomes, 50 μM ATP, 2 nM enzyme, 1 hour reaction
[2] = tested on: primary human T-cells; assay: T-cell proliferation assay (CellTiter-Glo); assay type: cell-based; settings: CD3 condition; for Emax proliferation (% activation): 5 days, 20 μM reference compound A1 = 100%; for EC50: Homo sapiens, T-cell, 120 h, proliferation after 5 days, CellTiter-Glo, read-out: Tcell Proliferation CD3 EC50

Sequence of DGKzeta (hDGKzeta(1-928)-N-His) (Q13574 whole entry): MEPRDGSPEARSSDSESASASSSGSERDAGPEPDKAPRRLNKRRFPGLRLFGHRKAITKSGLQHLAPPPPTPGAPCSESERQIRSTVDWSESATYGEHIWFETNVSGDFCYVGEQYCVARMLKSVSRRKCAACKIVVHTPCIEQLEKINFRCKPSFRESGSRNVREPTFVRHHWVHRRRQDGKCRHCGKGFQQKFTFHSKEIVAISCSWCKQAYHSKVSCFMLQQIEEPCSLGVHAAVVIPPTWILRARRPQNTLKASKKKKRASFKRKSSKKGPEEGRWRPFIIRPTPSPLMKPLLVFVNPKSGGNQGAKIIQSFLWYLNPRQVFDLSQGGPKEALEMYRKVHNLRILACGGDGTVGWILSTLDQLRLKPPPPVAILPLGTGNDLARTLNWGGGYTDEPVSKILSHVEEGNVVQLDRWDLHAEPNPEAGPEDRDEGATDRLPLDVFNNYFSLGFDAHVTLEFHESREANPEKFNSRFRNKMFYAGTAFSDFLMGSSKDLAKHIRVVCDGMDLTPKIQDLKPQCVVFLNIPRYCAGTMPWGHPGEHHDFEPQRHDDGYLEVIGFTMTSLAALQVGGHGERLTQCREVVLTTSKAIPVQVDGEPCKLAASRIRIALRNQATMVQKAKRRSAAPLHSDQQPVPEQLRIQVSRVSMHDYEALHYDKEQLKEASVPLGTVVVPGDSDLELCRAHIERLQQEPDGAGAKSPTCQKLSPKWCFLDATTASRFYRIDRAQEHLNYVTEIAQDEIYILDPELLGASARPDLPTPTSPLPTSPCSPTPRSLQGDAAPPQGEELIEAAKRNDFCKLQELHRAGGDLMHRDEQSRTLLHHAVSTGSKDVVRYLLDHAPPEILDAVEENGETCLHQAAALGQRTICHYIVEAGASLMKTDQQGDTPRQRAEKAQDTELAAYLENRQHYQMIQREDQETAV

Compound | IC50 [1] [µM] | Emax proliferation (% activation) [2] [% activation] | EC50 [2] [µM]
COc1ccc(-c2ccc(CN3C(=O)[C@@H](N)CS(=O)(=O)c4cc(F)c(-c5cnc(C)c(C)c5)cc43)cc2)cc1 [Example 28, (3R)-3-amino-7-(5,6-dimethyl-3-pyridyl)-8-fluoro-5-[[4-(4-methoxyphenyl)phenyl]methyl]-1,1-dioxo-2,3-dihydro-1λ6,5-benzothiazepin-4-one] | 9.91 | 155 | 0.081
CC(C)(C)c1cncc(-c2cc3c(cc2F)S(=O)(=O)C[C@H](N)C(=O)N3Cc2ccc(Cl)cc2)c1 [Example 2, (3R)-3-amino-7-(5-tert-butyl-3-pyridyl)-5-[(4-chlorophenyl)methyl]-8-fluoro-1,1-dioxo-2,3-dihydro-1λ6,5-benzothiazepin-4-one] | – | – | 0.081
CC(C)(c1cncc(-c2cc3c(cc2F)S(=O)(=O)C[C@H](N)C(=O)N3Cc2ccc(-c3noc(C(F)(F)F)n3)cc2)c1)S(C)(=O)=O [Example 25, (3R)-3-amino-8-fluoro-1,1-diketo-7-[5-(1-mesyl-1-methyl-ethyl)-3-pyridyl]-5-[4-[5-(trifluoromethyl)-1,2,4-oxadiazol-3-yl]benzyl]-2,3-dihydro-1λ6,5-benzothiazepin-4-one] | 43.1 | 120 | 0.526
CC(C)(C)c1cnnc(-c2cc3c(cc2F)S(=O)(=O)C[C@H](N)C(=O)N3Cc2ccc(Cl)cc2)n1 [Example 11, (3R)-3-amino-7-(5-tert-butyl-1,2,4-triazin-3-yl)-5-[(4-chlorophenyl)methyl]-8-fluoro-1,1-dioxo-2,3-dihydro-1λ6,5-benzothiazepin-4-one] | – | – | 0.09
CC(C)(C#N)c1cncc(-c2cc3c(cc2F)S(=O)(=O)C[C@H](N)C(=O)N3Cc2ccc(-c3noc(C(F)(F)F)n3)cc2)c1 [Example 23, 2-[5-[(3R)-3-amino-8-fluoro-1,1,4-triketo-5-[4-[5-(trifluoromethyl)-1,2,4-oxadiazol-3-yl]benzyl]-2,3-dihydro-1λ6,5-benzothiazepin-7-yl]-3-pyridyl]-2-methyl-propionitrile] | 9.88 | 204 | 0.933
